Measured values as given in patent US11542235B2, “Herbicidal 3-azaspiro[5.5] undecane-8, 10-dione compounds” (SYNGENTA PARTICIPATIONS AG, priority 2018, dated 2023).

Experiments:
Assay type in all cases: in vivo
Lolium perenne (LOLPE) = test: Glasshouse herbicidal test, pre- and post-emergence, Lolium perenne; details: 250 g/h, evaluated after 13 days, five point scale; for percentage damage caused to the plant, LOLPE POST: post-emergence; for percentage damage caused to the plant, LOLPE PRE: pre-emergence
Method: (§1) Seeds of a variety of test species are sown in standard soil in pots (Lolium perenne (LOLPE), Setaria faberi (SETFA), Alopecurus myosuroides (ALOMY), Echinochloa crus-galli (ECHCG), Avena fatua (AVEFA)). After cultivation for one day (pre-emergence) or after 8 days cultivation (post-emergence) under controlled conditions in a glasshouse (at 24/16° C., day/night; 14 hours light; 65% humidity), the plants are sprayed with an aqueous spray solution derived from the formulation of the technical active ingredient in acetone/water (50:50) solution containing 0.5% Tween 20 (polyoxyethelyene sorbitan monolaurate, CAS RN 9005-64-5). Compounds are applied at […]. The test plants are then grown in a glasshouse under controlled conditions in a glasshouse (at 24/16° C., day/night; 14 hours light; 65% humidity) and watered twice daily. After 13 days for pre and post-emergence, the test is evaluated for the percentage damage caused to the plant. The biological activities are shown in the following table on a five point scale (5=80-100%; 4=60-79%; 3=40-59%; 2=20-39%; 1=0-19%).

Setaria faberi (SETFA) = test: Glasshouse herbicidal test, pre- and post-emergence, Setaria faberi; details: 250 g/h, evaluated after 13 days, five point scale; for percentage damage caused to the plant, SETFA POST: post-emergence; for percentage damage caused to the plant, SETFA PRE: pre-emergence
Method: as §1

[1] = tested on: Alopecurus myosuroides (ALOMY); test: Glasshouse herbicidal test, pre- and post-emergence, Alopecurus myosuroides; details: 250 g/h, evaluated after 13 days, five point scale; for percentage damage caused to the plant, ALOMY POST: post-emergence; for percentage damage caused to the plant, ALOMY PRE: pre-emergence
Method: as §1

[2] = tested on: Echinochloa crus-galli (ECHCG); test: Glasshouse herbicidal test, pre- and post-emergence, Echinochloa crus-galli; details: 250 g/h, evaluated after 13 days, five point scale; for percentage damage caused to the plant, ECHCG POST: post-emergence; for percentage damage caused to the plant, ECHCG PRE: pre-emergence
Method: as §1

Avena fatua (AVEFA) = test: Glasshouse herbicidal test, pre- and post-emergence, Avena fatua; details: 250 g/h, evaluated after 13 days, five point scale; for percentage damage caused to the plant, AVEFA POST: post-emergence; for percentage damage caused to the plant, AVEFA PRE: pre-emergence
Method: as §1

CC#Cc1cc(OC)c(C2C(=O)CC3(CCN(OC)CC3)CC2=O)c(OC)c1 [Compound A4]
5 (5=80-100%): percentage damage caused to the plant, LOLPE POST (Lolium perenne (LOLPE)) | percentage damage caused to the plant, LOLPE PRE (Lolium perenne (LOLPE)) | percentage damage caused to the plant, SETFA POST (Setaria faberi (SETFA)) | percentage damage caused to the plant, SETFA PRE (Setaria faberi (SETFA)) | percentage damage caused to the plant, ALOMY POST [1] | percentage damage caused to the plant, ALOMY PRE [1] | percentage damage caused to the plant, ECHCG POST [2] | percentage damage caused to the plant, ECHCG PRE [2] | percentage damage caused to the plant, AVEFA POST (Avena fatua (AVEFA)) | percentage damage caused to the plant, AVEFA PRE (Avena fatua (AVEFA))

CC#Cc1cc(C)c(C2C(=O)CC3(CCN(C(=O)C(F)(F)F)CC3)CC2=O)c(C)c1 [Compound A5]
5 (5=80-100%): percentage damage caused to the plant, LOLPE POST (Lolium perenne (LOLPE)) | percentage damage caused to the plant, LOLPE PRE (Lolium perenne (LOLPE)) | percentage damage caused to the plant, SETFA POST (Setaria faberi (SETFA)) | percentage damage caused to the plant, SETFA PRE (Setaria faberi (SETFA)) | percentage damage caused to the plant, ALOMY POST [1] | percentage damage caused to the plant, ALOMY PRE [1] | percentage damage caused to the plant, ECHCG POST [2] | percentage damage caused to the plant, ECHCG PRE [2] | percentage damage caused to the plant, AVEFA POST (Avena fatua (AVEFA)) | percentage damage caused to the plant, AVEFA PRE (Avena fatua (AVEFA))

CC#Cc1cc(C)c(C2C(=O)CC3(CCN(C(=O)C(F)F)CC3)CC2=O)c(C)c1 [Compound A6]
5 (5=80-100%): percentage damage caused to the plant, LOLPE POST (Lolium perenne (LOLPE)) | percentage damage caused to the plant, LOLPE PRE (Lolium perenne (LOLPE)) | percentage damage caused to the plant, SETFA POST (Setaria faberi (SETFA)) | percentage damage caused to the plant, SETFA PRE (Setaria faberi (SETFA)) | percentage damage caused to the plant, ALOMY POST [1] | percentage damage caused to the plant, ALOMY PRE [1] | percentage damage caused to the plant, ECHCG POST [2] | percentage damage caused to the plant, ECHCG PRE [2] | percentage damage caused to the plant, AVEFA POST (Avena fatua (AVEFA)) | percentage damage caused to the plant, AVEFA PRE (Avena fatua (AVEFA))

CC#Cc1cc(C)c(C2C(=O)CC3(CCN(CC(F)(F)F)CC3)CC2=O)c(C)c1 [Compound A7]
5 (5=80-100%): percentage damage caused to the plant, LOLPE POST (Lolium perenne (LOLPE)) | percentage damage caused to the plant, LOLPE PRE (Lolium perenne (LOLPE)) | percentage damage caused to the plant, SETFA POST (Setaria faberi (SETFA)) | percentage damage caused to the plant, SETFA PRE (Setaria faberi (SETFA)) | percentage damage caused to the plant, ALOMY POST [1] | percentage damage caused to the plant, ALOMY PRE [1] | percentage damage caused to the plant, ECHCG POST [2] | percentage damage caused to the plant, ECHCG PRE [2] | percentage damage caused to the plant, AVEFA POST (Avena fatua (AVEFA)) | percentage damage caused to the plant, AVEFA PRE (Avena fatua (AVEFA))

CC#Cc1cc(C)c(C2C(=O)CC3(CCN(OC)CC3)CC2=O)c(C)c1 [Compound A8]
5 (5=80-100%): percentage damage caused to the plant, LOLPE POST (Lolium perenne (LOLPE)) | percentage damage caused to the plant, LOLPE PRE (Lolium perenne (LOLPE)) | percentage damage caused to the plant, SETFA POST (Setaria faberi (SETFA)) | percentage damage caused to the plant, SETFA PRE (Setaria faberi (SETFA)) | percentage damage caused to the plant, ALOMY POST [1] | percentage damage caused to the plant, ALOMY PRE [1] | percentage damage caused to the plant, ECHCG POST [2] | percentage damage caused to the plant, ECHCG PRE [2] | percentage damage caused to the plant, AVEFA POST (Avena fatua (AVEFA)) | percentage damage caused to the plant, AVEFA PRE (Avena fatua (AVEFA))

CC#Cc1cc(C)c(C2C(=O)CC3(CCN(C(=O)C(C)C)CC3)CC2=O)c(C)c1 [Compound A11]
5 (5=80-100%): percentage damage caused to the plant, LOLPE POST (Lolium perenne (LOLPE)) | percentage damage caused to the plant, LOLPE PRE (Lolium perenne (LOLPE)) | percentage damage caused to the plant, SETFA POST (Setaria faberi (SETFA)) | percentage damage caused to the plant, SETFA PRE (Setaria faberi (SETFA)) | percentage damage caused to the plant, ALOMY POST [1] | percentage damage caused to the plant, ALOMY PRE [1] | percentage damage caused to the plant, ECHCG POST [2] | percentage damage caused to the plant, ECHCG PRE [2] | percentage damage caused to the plant, AVEFA POST (Avena fatua (AVEFA)) | percentage damage caused to the plant, AVEFA PRE (Avena fatua (AVEFA))

CC#Cc1cc(C)c(C2C(=O)CC3(CCN(C(=O)C(C)(C)C)CC3)CC2=O)c(C)c1 [Compound A12]
5 (5=80-100%): percentage damage caused to the plant, LOLPE POST (Lolium perenne (LOLPE)) | percentage damage caused to the plant, LOLPE PRE (Lolium perenne (LOLPE)) | percentage damage caused to the plant, SETFA POST (Setaria faberi (SETFA)) | percentage damage caused to the plant, SETFA PRE (Setaria faberi (SETFA)) | percentage damage caused to the plant, ALOMY POST [1] | percentage damage caused to the plant, ALOMY PRE [1] | percentage damage caused to the plant, ECHCG POST [2] | percentage damage caused to the plant, ECHCG PRE [2] | percentage damage caused to the plant, AVEFA POST (Avena fatua (AVEFA)) | percentage damage caused to the plant, AVEFA PRE (Avena fatua (AVEFA))
